The text below walks through data of publication PMC6657890 (PLoS ONE, 2019).

This assay deals with T1, CV-IIL (Chromobacterium violaceum, UniProt Q7NX84).
T1 construct: gene CV_1744
Type of assay: binding.

T1 sequence (Q7NX84 2-114 limits assumed): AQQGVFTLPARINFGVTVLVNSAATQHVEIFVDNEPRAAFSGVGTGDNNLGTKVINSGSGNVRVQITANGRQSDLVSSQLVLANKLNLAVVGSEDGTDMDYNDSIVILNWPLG

Turning to `OC[C@H]1OC(O)[C@@H](O)[C@@H](O)[C@@H]1O` (stereo partly drawn) [D-mannose], the Kd (commonly the concentration at which binding is half-saturated) was 25.6 µM.

With `C[C@@H]1OC(O)[C@@H](O)[C@H](O)[C@@H]1O` (stereo partly drawn) [L-fucose], the Kd stood at 8.2 µM.
